Where a name gives a salt, the structure may show the parent alone.
Target: IRAK-4 (Homo sapiens (Human), UniProt Q9NWZ3)
Test: In vitro IRAK-4 kinase assay
Format: biochemical
Settings: purified recombinant IRAK-4, 50 uM ATP, 33P peptide phosphorylation
In short: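 Recombinant IRAK-4 or IRAK-1 incubated with 250 uM synthetic peptide in MOPS pH7.2 kinase buffer with 50 uM ATP, 20 mM MgCl2 and γ-33P ATP for the indicated time. Phosphorylated peptide captured on phosphocellulose, washed with phosphoric acid, quantified by scintillation counting.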

Sequence of IRAK-4 (Q9NWZ3 whole entry, species assumed): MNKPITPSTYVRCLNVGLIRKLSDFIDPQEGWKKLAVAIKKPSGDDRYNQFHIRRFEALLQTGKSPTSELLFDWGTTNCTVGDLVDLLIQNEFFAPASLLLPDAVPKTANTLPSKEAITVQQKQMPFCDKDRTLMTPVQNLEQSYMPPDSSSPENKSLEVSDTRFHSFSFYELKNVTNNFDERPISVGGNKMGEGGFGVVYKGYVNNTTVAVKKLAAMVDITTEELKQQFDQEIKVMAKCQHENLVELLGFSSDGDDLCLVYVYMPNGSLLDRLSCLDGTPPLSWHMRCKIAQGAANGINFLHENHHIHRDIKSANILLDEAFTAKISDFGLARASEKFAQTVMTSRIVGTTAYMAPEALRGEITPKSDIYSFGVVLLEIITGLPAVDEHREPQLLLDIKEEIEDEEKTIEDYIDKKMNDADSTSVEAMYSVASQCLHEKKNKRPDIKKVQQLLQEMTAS

Row | Compound | IC50 [nM]
1 | O=C(Nc1cc(Cl)ccc1OC1CCC(O)CC1)c1cnn2cc(CO)cnc12 (stereo not drawn) [Example 133, 6-Hydroxymethyl-pyrazolo[1,5-alpha]pyrimidine-3-carboxylic acid [5-chloro-2-(4-hydroxy-cyclohexyloxy)-phenyl]-amide] | 2250
2 | O=C(Nc1cc2cccnc2cc1OC1CCNCC1)c1cnn2cccnc12 [Example 32, Pyrazolo[1,5-alpha]pyrimidine-3-carboxylic acid [7-(piperidin-4-yloxy)-quinolin-6-yl]-amide hydrochloride] | 40
3 | CNCC1CCN(c2ccc(Cl)cc2NC(=O)c2csc3cncnc23)CC1 [Example 151, Thieno[3,2-d]pyrimidine-7-carboxylic acid [5-chloro-2-(4-methylaminomethyl-piperidin-1-yl)-phenyl]-amide] | 3540
4 | O=C(Nc1cc2cccnc2cc1OC1CCNCC1)c1csc2cncnc12 [Example 56, Thieno[3,2-d]pyrimidine-7-carboxylic acid [7-(piperidin-4-yloxy)-quinolin-6-yl]-amide hydrochloride] | 125
5 | COc1cc2ncccc2cc1NC(=O)c1csc2cnc(NCCCN)nc12 [Example 50, 2-(3-Amino-propylamino)-thieno[3,2-d]pyrimidine-7-carboxylic acid (7-methoxy-quinolin-6-yl)-amide] | 101
6 | CC(O)CCOc1cc2ncccc2cc1NC(=O)c1csc2cncnc12 (stereo not shown) [Example 28] | 33
7 | O=C(Nc1cc(Cl)ccc1OC1CCC(O)CC1)c1cnn2cc(CCCO)cnc12 (stereo not drawn) [Example 178, 6-(3-Hydroxy-propyl)-pyrazolo[1,5-alpha]pyrimidine-3-carboxylic acid [5-chloro-2-(4-hydroxy-cyclohexyloxy)-phenyl]-amide] | 9420
8 | O=C(Nc1cc(Cl)ccc1N1CCCCC1CO)c1cnn2cccnc12 (stereo not drawn) [Example 164, Pyrazolo[1,5-alpha]pyrimidine-3-carboxylic acid [5-chloro-2-(2-hydroxymethyl-piperidin-1-yl)-phenyl]-amide] | 4850
9 | NCC1CCN(c2c(N)cccc2NC(=O)c2cnn3cccnc23)CC1 [Example 59, Pyrazolo[1,5-alpha]pyrimidine-3-carboxylic acid [3-amino-2-(4-aminomethyl-piperidin-1-yl)-phenyl]-amide] | 133
10 | COc1cc(C(=O)NCCCO)ccc1NC(=O)c1csc2cncnc12 [Example 113, Thieno[3,2-d]pyrimidine-7-carboxylic acid [4-(3-hydroxy-propylcarbamoyl)-2-methoxy-phenyl]-amide] | 833
11 | NC(=O)c1cnc2c(C(=O)Nc3cc(Cl)ccc3O[C@H]3CC[C@@H](O)CC3)cnn2c1 [Example 67, Pyrazolo[1,5-alpha]pyrimidine-3,6-dicarboxylic acid 6-amide 3-{[5-chloro-2-(4-hydroxy-cyclohexyloxy)-phenyl]-amide}] | 203
12 | O=C(Nc1cc(Cl)ccc1OC1CCC(O)C1)c1csc2cncnc12 (stereo not shown) [Example 120, Thieno[3,2-d]pyrimidine-7-carboxylic acid [5-chloro-2-(3-hydroxy-cyclopentyloxy)-phenyl]-amide] | 1520
13 | COc1ccc(Cl)cc1NC(=O)c1csc2cnc(NCCCO)nc12 [Example 126, 2-(3-Hydroxy-propylamino)-thieno[3,2-d]pyrimidine-7-carboxylic acid (5-chloro-2-methoxy-phenyl)-amide] | 2060
14 | O=C(Nc1cc(Cl)ccc1OC1CCC(O)CC1)c1cnn2cc(CCO)cnc12 (stereo not drawn) [Example 147, 6-(2-Hydroxy-ethyl)-pyrazolo[1,5-alpha]pyrimidine-3-carboxylic acid [5-chloro-2-(4-hydroxy-cyclohexyloxy)-phenyl]-amide] | 3040
15 | O=C(Nc1cc2cccnc2cc1OCCCO)c1csc2cncnc12 [Example 58, Thieno[3,2-d]pyrimidine-7-carboxylic acid [7-(3-hydroxy-propoxy)-quinolin-6-yl]-amide] | 131
16 | COc1ccccc1NC(=O)c1csc2cncnc12 [Example 169, Thieno[3,2-d]pyrimidine-7-carboxylic acid (2-methoxy-phenyl)-amide] | 6560
17 | 2-(cis-2-Amino-cyclohexylamino)-thieno[3,2-d]pyrimidine-7-carboxylic acid quinolin-8-ylamide [Example 22] | 28
18 | COc1ccc(Cl)cc1NC(=O)c1csc2cnc(N(C)CCN)nc12 [Example 86, 2-[(2-Amino-ethyl)-methyl-amino]-thieno[3,2-d]pyrimidine-7-carboxylic acid (5-chloro-2-methoxy-phenyl)-amide] | 436

Results, then the compound that gave them:

Row | IC50 [nM] | Compound
19 | 455 | COc1cc(C(=O)Nc2ccccc2)ccc1NC(=O)c1cnn2cccnc12 [Example 89, Pyrazolo[1,5-alpha]pyrimidine-3-carboxylic acid (2-methoxy-4-phenylcarbamoyl-phenyl)-amide]
20 | 136 | O=C(Nc1cc(Cl)ccc1N1CCC(O)CC1)c1cnn2cccnc12 [Example 60, Pyrazolo[1,5-alpha]pyrimidine-3-carboxylic acid [5-chloro-2-(4-hydroxy-piperidin-1-yl)-phenyl]-amide]
21 | 1710 | COCCOc1ccc(Cl)cc1NC(=O)c1cnn2cccnc12 [Example 124, Pyrazolo[1,5-alpha]pyrimidine-3-carboxylic acid [5-chloro-2-(2-methoxy-ethoxy)-phenyl]-amide]
22 | 2310 | O=C(Nc1cc(Cl)ccc1OC[C@@H](O)CO)c1cnn2cccnc12 [Example 137, Pyrazolo[1,5-alpha]pyrimidine-3-carboxylic acid [5-chloro-2-(2,3-dihydroxy-propoxy)-phenyl]-amide]
23 | 4050 | O=C(Nc1cc(Cl)ccc1Oc1cccc(O)c1)c1cnn2cccnc12 [Example 156, Pyrazolo[1,5-alpha]pyrimidine-3-carboxylic acid [5-chloro-2-(3-hydroxy-phenoxy)-phenyl]-amide]
24 | 4170 | COc1ccc(NC(=O)c2cnn3cccnc23)c(OC)c1 [Example 158, Pyrazolo[1,5-alpha]pyrimidine-3-carboxylic acid (2,4-dimethoxy-phenyl)-amide]
25 | 1500 | O=C(Nc1cc(Cl)ccc1N1CCCCCC1)c1cnn2cccnc12 [Example 119, Pyrazolo[1,5-alpha]pyrimidine-3-carboxylic acid (2-azepan 1-yl-5-chloro-phenyl)-amide]
26 | 218 | O=C(Nc1cc(Cl)ccc1-c1ccc(CO)cc1)c1cnn2cccnc12 [Example 68, Pyrazolo[1,5-alpha]pyrimidine-3-carboxylic acid (4-chloro-4′-hydroxymethyl-biphenyl-2-yl)-amide]
27 | 251 | NC1CCN(c2ccc(Cl)cc2NC(=O)c2cnn3cccnc23)CC1 [Example 70, Pyrazolo[1,{tildeover (5)}-alpha] pyrimidine-3-carboxylic acid [2-(4-amino-piperidin-1-yl)-5-chloro-phenyl]-amide]
28 | 2260 | COc1cc(C(N)=O)ccc1NC(=O)c1cnn2cccnc12 [Example 134, Pyrazolo[1,5-alpha]pyrimidine-3-carboxylic acid (4-carbamoyl-2-methoxy-phenyl)-amide]
29 | 799 | O=C(Nc1cc(Cl)ccc1C1CCCCC1)c1cnn2cccnc12 [Example 112, Pyrazolo[1,5-alpha]pyrimidine-3-carboxylic acid (5-chloro-2-cyclohexyl-phenyl)-amide]
30 | 766 | NC1CCN(c2ccc(Cl)cc2NC(=O)c2cnn3cccnc23)C1 (stereo not drawn) [Example 109, Pyrazolo[1,5-alpha]pyrimidine-3-carboxylic acid [2-(3-amino-pyrrolidin-1-yl)-5-chloro-phenyl]-amide]
31 | 2740 | COc1cc(OC)c(NC(=O)c2cnn3cccnc23)cc1Cl [Example 142, Pyrazolo[1,5-alpha]pyrimidine-3-carboxylic acid (5-chloro-2,4-dimethoxy-phenyl)-amide]
32 | 798 | CSc1ccc(Cl)cc1NC(=O)c1cnn2cccnc12 [Example 111, Pyrazolo[1,5-alpha]pyrimidine-3-carboxylic acid (5-chloro-2-methylsulfanyl-phenyl)-amide]
33 | 3800 | CCc1ccc(Cl)cc1NC(=O)c1cnn2cccnc12 [Example 154, Pyrazolo[1,5-alpha]pyrimidine-3-carboxylic acid (5-chloro-2-ethyl-phenyl)-amide]
34 | 3400 | CN(CCCO)c1ccc(Cl)cc1NC(=O)c1cnn2cccnc12 [Example 149, Pyrazolo[1,5-alpha]pyrimidine-3-carboxylic acid {5-chloro-2-[(3-hydroxy-propyl)-methyl-amino]-phenyl}-amide]
35 | 7920 | COc1cc(C(=O)Nc2ccccc2)c(Cl)cc1NC(=O)c1cnn2cccnc12 [Example 174, Pyrazolo[1,5-alpha]pyrimidine-3-carboxylic acid (5-chloro-2-methoxy-4-phenylcarbamoyl-phenyl)-amide]
36 | 1220 | O=C(Nc1ccccc1-c1ccccc1)c1cnn2cccnc12 [Example 116, Pyrazolo[1,5-alpha]pyrimidine-3-carboxylic acid biphenyl-2-ylamide]
37 | 72 | O=C(Nc1cc(Cl)ccc1N1CCC(CO)CC1)c1cnn2cccnc12 [Example 42, Pyrazolo[1,5-alpha]pyrimidine-3-carboxylic acid [5-chloro-2-(4-hydroxymethyl-piperidin-1-yl)-phenyl]-amide]
38 | 327 | O=C(Nc1cc2ccccc2cc1OCCCO)c1cnn2cccnc12 [Example 80, Pyrazolo[1,5-alpha]pyrimidine-3-carboxylic acid [3-(3-hydroxy-propoxy)-naphthalen-2-yl]-amide]
39 | 534 | O=C(Nc1cc(Cl)ccc1-c1ccccc1)c1cnn2cccnc12 [Example 100, Pyrazolo[1,5-alpha]pyrimidine-3-carboxylic acid (4-chloro-biphenyl-2-yl)-amide]
40 | 4650 | O=C(Nc1cc(Cl)ccc1Oc1ccccc1)c1cnn2cccnc12 [Example 161, Pyrazolo[1,5-alpha]pyrimidine-3-carboxylic acid (5-chloro-2-phenoxy-phenyl)-amide]

— patent US9255110B2 (Hoffmann-La Roche Inc., priority 2010, dated 2016)
